In ChEMBL document CHEMBL1201862, “PubChem BioAssay data set” (2004):
The source made the active and inactive calls.

Legend:
[1] = NIH-3T3 fibroblast cytotoxicity, dose response, cytotoxicity control, cell-based, fluorescence, Alamar Blue, secondary assay (AID 2327); type: functional;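 further: NIH-3T3 mouse fibroblasts cultured with fluconazole at 8 µg/mL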
[2] = fluconazole-exposed Candida albicans growth modulators – fluorescence, retest, confirmation (AID 2467); type: functional, cell-based
[3] = Luminescence Cell-Based Dose Retest to Confirm Inhibitors of Cancer Stem Cells. [Related pubchem assays (depositor defined):AID2717, AID2721]; type: functional; conditions: Homo sapiens
[4] = molecular target: T1, Leucine aminopeptidase (Plasmodium falciparum 3D7, UniProt Q8IL11); experiment: P. falciparum M17LAP inhibitors, primary screen, biochemical, fluorogenic H-Leu-NHMec substrate, 1536-well (AID 1619); type: functional
T1 sequence (Q8IL11 whole entry): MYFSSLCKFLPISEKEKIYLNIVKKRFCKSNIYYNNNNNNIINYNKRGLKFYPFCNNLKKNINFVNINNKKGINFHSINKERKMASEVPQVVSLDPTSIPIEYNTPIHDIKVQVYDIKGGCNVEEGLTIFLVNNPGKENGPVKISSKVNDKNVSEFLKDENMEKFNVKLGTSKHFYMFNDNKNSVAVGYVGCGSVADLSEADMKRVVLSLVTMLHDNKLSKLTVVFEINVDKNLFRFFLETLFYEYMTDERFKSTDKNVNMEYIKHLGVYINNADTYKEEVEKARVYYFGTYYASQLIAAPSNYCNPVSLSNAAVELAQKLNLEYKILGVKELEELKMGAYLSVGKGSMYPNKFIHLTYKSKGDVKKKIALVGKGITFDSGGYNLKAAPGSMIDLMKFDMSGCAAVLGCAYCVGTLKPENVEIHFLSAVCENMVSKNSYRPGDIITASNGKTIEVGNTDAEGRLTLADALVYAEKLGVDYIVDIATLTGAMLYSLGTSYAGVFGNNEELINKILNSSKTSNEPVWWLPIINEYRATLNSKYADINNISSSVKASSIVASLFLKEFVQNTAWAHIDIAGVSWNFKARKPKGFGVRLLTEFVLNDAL

[5] = molecular target: Cytochrome P450 3A4 (Homo sapiens, UniProt P08684);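 further: CYP3A4 tested as one member of a cytochrome P450 panel screen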
[6] = viability of HCT116 lacking mutant beta-catenin – cell-based, human colon tumor, dose response (AID 1045); type: functional;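 further: HCT116 colon tumor cells with beta catenin knocked out; cells exposed to compound for 60 hours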
[7] = viability of PTEN-deleted HCT116 cells – cell-based, HCT116 PTEN knockout, dose response (AID 1047); type: functional;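 further: HCT116 colon tumor cells with PTEN knocked out; cells exposed to compound for 60 hours before readout; potency for loss of cell viability measured by luminescence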
[8] = molecular target: T2, Streptokinase A (Streptococcus pyogenes serotype M1, UniProt P10520); experiment: viability-normalized secreted streptokinase activity reduction – plasminogen activation absorbance, OD405, dose response (AID 1914); type: functional, Streptococcus pyogenes M1 GAS;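 further: secreted streptokinase activity via plasminogen activation per viability signal from cell pellet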
T2 sequence (P10520 whole entry): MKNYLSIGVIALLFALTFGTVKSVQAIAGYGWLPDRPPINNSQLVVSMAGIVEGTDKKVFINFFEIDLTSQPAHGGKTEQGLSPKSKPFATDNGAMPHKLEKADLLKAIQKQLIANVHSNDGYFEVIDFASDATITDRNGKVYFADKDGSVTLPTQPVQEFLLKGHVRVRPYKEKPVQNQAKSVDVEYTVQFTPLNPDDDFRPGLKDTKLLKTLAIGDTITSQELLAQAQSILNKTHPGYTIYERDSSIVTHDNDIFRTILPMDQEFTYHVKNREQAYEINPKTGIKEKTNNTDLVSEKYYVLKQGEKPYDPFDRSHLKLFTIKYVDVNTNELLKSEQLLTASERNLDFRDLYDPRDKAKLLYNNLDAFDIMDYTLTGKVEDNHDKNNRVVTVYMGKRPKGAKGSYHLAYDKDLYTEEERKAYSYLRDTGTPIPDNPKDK

[9] = system: Streptococcus; experiment: GAS UMAA2166 growth inhibition – luminescence, BacTiterGlo, counter-screen for streptokinase expression inhibitor project, dose response (AID 1915); type: functional, organism-based;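 further: potency for reduction of bacterial viability or growth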
[10] = NIH3T3 cell viability loss – ATP luminescence, mouse fibroblasts, counter-screen, dose response (AID 2010); type: functional, cell-based;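 further: cells exposed to compound for about 90 hours before reading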
[11] = system: Streptococcus sp. 'group A'; experiment: Streptococcus pyogenes SK(-)GAS viability under kanamycin – luminescence, BacTiterGlo, confirmation, counter-screen for streptokinase expression inhibitor project, dose response (AID 1900); type: functional, organism-based
[12] = Trypanosoma cruzi growth suppression in host cells – NIH3T3 host cells, beta-gal luminescence, confirmation (AID 2044); type: functional, cell-based;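 further: intracellular parasites grown in NIH/3T3 mouse fibroblasts as host cells; luminescent beta-galactosidase reporter signal from transgenic T. cruzi replicating inside host cells; inhibitors lower the luminescence signal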
[13] = molecular target: T3, Rac GTPase-activating protein 1 (Homo sapiens, UniProt Q9H0H5); experiment: blockers of MgcRacGAP-driven Rac1 GTP hydrolysis – biochemical, ADP Hunter fluorescence, primary and confirmatory, confirmation (AID 624330); type: functional
T3 sequence (Q9H0H5 whole entry): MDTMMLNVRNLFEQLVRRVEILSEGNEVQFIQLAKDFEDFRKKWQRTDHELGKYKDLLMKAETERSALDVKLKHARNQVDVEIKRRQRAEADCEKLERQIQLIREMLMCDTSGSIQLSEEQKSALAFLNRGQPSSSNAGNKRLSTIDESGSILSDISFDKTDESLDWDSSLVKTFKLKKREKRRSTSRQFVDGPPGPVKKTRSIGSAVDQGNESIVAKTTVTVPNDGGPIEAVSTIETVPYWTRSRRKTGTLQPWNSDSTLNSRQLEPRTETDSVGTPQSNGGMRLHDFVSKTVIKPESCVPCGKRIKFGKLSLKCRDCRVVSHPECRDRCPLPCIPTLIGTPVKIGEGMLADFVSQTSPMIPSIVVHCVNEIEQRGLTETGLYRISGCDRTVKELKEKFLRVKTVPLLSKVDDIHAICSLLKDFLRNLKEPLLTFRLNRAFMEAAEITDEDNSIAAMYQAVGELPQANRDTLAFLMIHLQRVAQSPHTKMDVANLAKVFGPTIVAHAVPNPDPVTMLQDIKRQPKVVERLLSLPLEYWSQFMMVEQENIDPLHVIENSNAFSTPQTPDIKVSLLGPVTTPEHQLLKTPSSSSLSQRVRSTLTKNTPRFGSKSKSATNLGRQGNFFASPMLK

[14] = molecular target: T4, Polyadenylate-binding protein 1 (Homo sapiens, UniProt P11940); experiment: MLLE binding blockers, Cy5 peptide tracer – biochemical, fluorescence polarization, Cy5-PAM2 peptide, secondary, miRNA deadenylation inhibitor project, dose response (AID 602260); type: functional; conditions: read-out: IC50_Mean
[15] = molecular target: T4, Polyadenylate-binding protein 1; experiment: MLLE domain peptide-binding blockers, IC50 – biochemical, fluorescence polarization, FITC-PAM2 peptide, dose response (AID 602259); type: functional; conditions: read-out: IC50_Mean
[16] = system: H9c2; experiment: cells; type: functional, cell-based; conditions: Rattus norvegicus, H9c2, Myocardium;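 further: confirmatory concentration-response retest of ultra-high-throughput screening hits for modulation of myocardial damage; cell death induced by hydrogen peroxide oxidative stress; compound pretreatment for 60 min then peroxide exposure for 2 h; potency is for protecting the cells against peroxide damage rather than for killing them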

T4 sequence (P11940 whole entry, the tested form may be a part): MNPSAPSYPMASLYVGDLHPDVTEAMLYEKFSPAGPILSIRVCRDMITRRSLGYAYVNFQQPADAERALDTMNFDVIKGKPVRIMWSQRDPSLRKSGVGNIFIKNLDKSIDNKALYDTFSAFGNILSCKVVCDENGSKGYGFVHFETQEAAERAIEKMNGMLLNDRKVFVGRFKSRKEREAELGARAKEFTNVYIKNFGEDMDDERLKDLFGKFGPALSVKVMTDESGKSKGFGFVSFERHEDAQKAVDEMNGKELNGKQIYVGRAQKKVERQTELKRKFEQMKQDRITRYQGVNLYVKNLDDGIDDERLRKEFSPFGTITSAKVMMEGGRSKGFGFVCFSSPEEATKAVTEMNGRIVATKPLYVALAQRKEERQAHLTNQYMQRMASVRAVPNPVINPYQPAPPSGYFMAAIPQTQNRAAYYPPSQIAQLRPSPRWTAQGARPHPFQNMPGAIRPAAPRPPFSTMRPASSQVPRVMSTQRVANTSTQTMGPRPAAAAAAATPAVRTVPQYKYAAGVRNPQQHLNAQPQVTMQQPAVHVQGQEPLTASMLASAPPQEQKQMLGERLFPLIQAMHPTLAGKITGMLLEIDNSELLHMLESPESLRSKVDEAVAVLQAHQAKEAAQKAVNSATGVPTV
Chain of Cytochrome P450 3A4 (P08684 whole entry): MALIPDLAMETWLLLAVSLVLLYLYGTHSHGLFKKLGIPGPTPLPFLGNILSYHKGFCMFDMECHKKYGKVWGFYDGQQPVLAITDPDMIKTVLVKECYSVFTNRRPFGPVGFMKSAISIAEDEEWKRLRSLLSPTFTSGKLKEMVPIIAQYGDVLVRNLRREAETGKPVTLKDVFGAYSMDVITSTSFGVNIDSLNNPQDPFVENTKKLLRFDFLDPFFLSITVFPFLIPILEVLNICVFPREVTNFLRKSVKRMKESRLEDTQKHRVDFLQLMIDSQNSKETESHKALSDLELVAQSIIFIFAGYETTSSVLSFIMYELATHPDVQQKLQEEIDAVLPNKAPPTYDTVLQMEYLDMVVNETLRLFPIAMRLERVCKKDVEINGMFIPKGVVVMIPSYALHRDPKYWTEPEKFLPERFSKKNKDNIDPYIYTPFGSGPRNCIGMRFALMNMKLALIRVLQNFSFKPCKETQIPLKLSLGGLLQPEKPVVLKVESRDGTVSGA

## Cc1ccc(C2(c3noc(CN4CCC(c5ccncc5)CC4)n3)CCCC2)cc1
[1]
  EC50: 19.7 µM (active)
[2]
  EC50: > 38 µM (not active)
[3]
  AC50: 0.772 µM (active)

## COC(=O)c1ccccc1NC(=O)CN1C(=O)c2ccccc2S1(=O)=O
[4]
  IC50: 18.1 µM (active)

## Cc1ccc(NC(=O)CSc2nnc(NC(=O)CN3CCOCC3)s2)cc1
[4]
  IC50: 9.15 µM (active)

## CN(C(=O)CC(NC(=O)c1ccccc1)(c1ccccc1)c1ccccc1)c1ccccc1
[1]
  EC50: 30.5 µM (active)
[2]
  EC50: 4.72 µM (active)
[5]
  AC50: 0.708 µM (inconclusive)

## CC1=C(C(=O)Nc2ccc([N+](=O)[O-])cc2)C(c2cccc(C(F)(F)F)c2)N=C(S)N1c1ccccc1 (stereo unspecified)
[6]
  EC50: 11.5 µM (active)
[7]
  EC50: 9.06 µM (active)
[8]
  EC50: 18.8 µM (active)
[9]
  EC50: 20.5 µM (active)
[10]
  EC50: > 60 µM (inconclusive)
[11]
  EC50: 7.84 µM (active)
[12]
  EC50: 2.05 µM (active)

## CCN(c1ccccc1)S(=O)(=O)c1ccc(Cl)c(NC(=O)CN(C)C2CCN(C)CC2)c1
[1]
  EC50: > 150 µM (inactive)
[2]
  EC50: 3.82 µM (active)
[13]
  IC50: 80.2 µM (active)
[10]
  EC50: > 60 µM (not active)
[12]
  EC50: 0.395 µM (active)

## Cc1ccc(N(CC(N)=O)C2SC(=O)N(Cc3ccccc3)C2=O)cc1 (stereo unspecified)
[14]
  IC50: > 66 µM (inactive)
[15]
  IC50: > 66 µM (inactive)

## O=c1c2ccccc2nc(CSc2[nH]cnc3ncnc2-3)n1-c1ccc(Cl)c(Cl)c1
[16]
  IC50: > 79 µM (inactive)

## Cc1cccc(Nc2nc(N)nc(CC(=O)CSc3ccc(Cl)cc3)n2)c1
[6]
  EC50: 35.6 µM (active)
[7]
  EC50: 56 µM (active)

## Cn1c(CCN2CCCCC2)nc2cc(NS(=O)(=O)c3ccc(F)cc3)ccc21
[6]
  EC50: 55.9 µM (active)
[7]
  EC50: 51.6 µM (active)

## Cc1noc(NS(=O)(=O)c2ccc(N/C=C\C(=O)c3ccc4c(c3)OCO4)cc2)c1C
[4]
  IC50: 13.9 µM (active)

## CCCN1C(=O)c2cc(C(=O)Nc3cccc(C(C)=O)c3)ccc2C1Nc1cccc(C(C)=O)c1 (stereo unspecified)
[16]
  IC50: > 79 µM (inactive)

## CCOC(=O)c1cn(-c2ccc(F)c(F)c2)c2c(F)c(F)c(F)c(F)c2c1=O
[6]
  EC50: 22.4 µM (active)
[7]
  EC50: 19.5 µM (active)

## O=C(NCCCCNC(=O)c1nc[nH]c1C(=O)Nc1cccc(Cl)c1)c1nc[nH]c1C(=O)Nc1cccc(Cl)c1
[16]
  IC50: > 79 µM (inactive)

## CC(=O)Nc1sc(C)c(C)c1C(=O)OCC(=O)Nc1cc(S(=O)(=O)N2CCCCC2)ccc1Cl
[6]
  EC50: 133 µM (active)
[7]
  EC50: 43.1 µM (active)

## CC(=O)Nc1cccc(NC(=O)Cc2nc(-c3ccccc3)sc2-c2ccc(C)cc2)c1
[6]
  EC50: 16.6 µM (active)
[7]
  EC50: 17.1 µM (active)
